Assay results: ChEMBL document CHEMBL2040848, “Synthesis and bioactivity evaluation of rhodanine derivatives as potential anti-bacterial agents” (2012)
Converted amounts (≈) assume the structure as drawn.

What was measured:
Type in all cases: functional
Staphylococcus aureus [1] = test: Ratio of MIC for norfloxacin to compound for quinolone-resistant Staphylococcus aureus CCARM 3505 after 24 hrs by two-fold serial dilution method
Staphylococcus aureus [2] = test: Antibacterial activity against quinolone-resistant Staphylococcus aureus CCARM 3505 after 24 hrs by two-fold serial dilution method; details: CCARM 3505, 24 h
Staphylococcus aureus [3] = test: Ratio of MIC for norfloxacin to compound for quinolone-resistant Staphylococcus aureus CCARM 3519 after 24 hrs by two-fold serial dilution method
Staphylococcus aureus [4] = test: Ratio of MIC for oxacillin to compound for methicillin-resistant Staphylococcus aureus CCARM 3506 after 24 hrs by two-fold serial dilution method
Staphylococcus aureus [5] = test: Antibacterial activity against Staphylococcus aureus KCTC 4220 after 24 hrs by two-fold serial dilution method; details: KCTC 4220, 24 h
Staphylococcus aureus [6] = test: Ratio of MIC for norfloxacin to compound for methicillin-resistant Staphylococcus aureus CCARM 3167 after 24 hrs by two-fold serial dilution method
Staphylococcus aureus [7] = test: Antibacterial activity against methicillin-resistant Staphylococcus aureus CCARM 3506 after 24 hrs by two-fold serial dilution method; details: CCARM 3506, 24 h
Staphylococcus aureus [8] = test: Ratio of MIC for norfloxacin to compound for methicillin-resistant Staphylococcus aureus CCARM 3506 after 24 hrs by two-fold serial dilution method
Staphylococcus aureus [9] = test: Antibacterial activity against methicillin-resistant Staphylococcus aureus CCARM 3167 after 24 hrs by two-fold serial dilution method; details: CCARM 3167, 24 h
Staphylococcus aureus [10] = test: Antibacterial activity against quinolone-resistant Staphylococcus aureus CCARM 3519 after 24 hrs by two-fold serial dilution method; details: CCARM 3519, 24 h
Staphylococcus aureus [11] = test: Antibacterial activity against Staphylococcus aureus KCTC 209 after 24 hrs by two-fold serial dilution method; details: KCTC 209, 24 h
Staphylococcus aureus [12] = test: Antibacterial activity against Staphylococcus aureus KCTC 503 after 24 hrs by two-fold serial dilution method; details: KCTC 503, 24 h
Staphylococcus aureus [13] = test: Ratio of MIC for oxacillin to compound for methicillin-resistant Staphylococcus aureus CCARM 3167 after 24 hrs by two-fold serial dilution method
Escherichia coli = test: Antibacterial activity against Escherichia coli 1356 after 24 hrs by two-fold serial dilution method; details: Escherichia coli, 1356, 24 h
Staphylococcus aureus [14] = test: Ratio of MIC for norfloxacin to compound for Staphylococcus aureus KCTC 209 after 24 hrs by two-fold serial dilution method
Staphylococcus aureus [15] = test: Ratio of MIC for norfloxacin to compound for Staphylococcus aureus KCTC 503 after 24 hrs by two-fold serial dilution method
Staphylococcus aureus [16] = test: Ratio of MIC for norfloxacin to compound for Staphylococcus aureus KCTC 4220 after 24 hrs by two-fold serial dilution method

Row | SMILES | Ratio (Staphylococcus aureus [1]) | MIC (Staphylococcus aureus [2]) [µg/mL] | Ratio (Staphylococcus aureus [3]) | Ratio (Staphylococcus aureus [4]) | MIC (Staphylococcus aureus [5]) [µg/mL] | Ratio (Staphylococcus aureus [6]) | MIC (Staphylococcus aureus [7]) [µg/mL] | Ratio (Staphylococcus aureus [8]) | MIC (Staphylococcus aureus [9]) [µg/mL] | MIC (Staphylococcus aureus [10]) [µg/mL] | MIC (Staphylococcus aureus [11]) [µg/mL] | MIC (Staphylococcus aureus [12]) [µg/mL] | Ratio (Staphylococcus aureus [13]) | MIC (Escherichia coli) [µg/mL] | Ratio (Staphylococcus aureus [14]) | Ratio (Staphylococcus aureus [15]) | Ratio (Staphylococcus aureus [16])
1 | O=C(COc1ccc(/C=C2\SC(=S)N([C@@H](Cc3ccccc3)C(=O)O)C2=O)cc1)c1ccc(F)cc1 | 64 | 1 (≈ 1.92 µM) | 64 | 64 | 4 (≈ 7.67 µM) | 4 | 1 (≈ 1.92 µM) | 4 | 1 (≈ 1.92 µM) | 1 (≈ 1.92 µM) | 4 (≈ 7.67 µM) | 4 (≈ 7.67 µM) | 64 | > 64 |  |  | 
2 | COc1cccc(C(=O)COc2ccc(/C=C3\SC(=S)N([C@@H](Cc4ccc(O)cc4)C(=O)O)C3=O)cc2)c1 |  | 8 (≈ 14.6 µM) |  |  | 32 (≈ 58.2 µM) |  | 16 (≈ 29.1 µM) |  | 8 (≈ 14.6 µM) | 16 (≈ 29.1 µM) | 8 (≈ 14.6 µM) | 8 (≈ 14.6 µM) |  | > 64 |  |  | 
3 | COc1ccccc1C(=O)COc1ccc(/C=C2\SC(=S)N([C@@H](Cc3ccc(O)cc3)C(=O)O)C2=O)cc1 |  | 8 (≈ 14.6 µM) |  |  | 32 (≈ 58.2 µM) |  | 8 (≈ 14.6 µM) |  | 8 (≈ 14.6 µM) | 8 (≈ 14.6 µM) | 8 (≈ 14.6 µM) | 8 (≈ 14.6 µM) |  | > 64 |  |  | 
4 | O=C(COc1ccc(/C=C2\SC(=S)N([C@@H](Cc3c[nH]c4ccccc34)C(=O)O)C2=O)cc1)c1ccccc1Cl |  | 8 (≈ 13.9 µM) |  |  | 8 (≈ 13.9 µM) |  | 8 (≈ 13.9 µM) |  | 8 (≈ 13.9 µM) | 8 (≈ 13.9 µM) | 4 (≈ 6.93 µM) | 4 (≈ 6.93 µM) |  | > 64 |  |  | 
5 | O=C(COc1ccc(/C=C2\SC(=S)N([C@@H](Cc3c[nH]c4ccccc34)C(=O)O)C2=O)cc1)c1cccc(Cl)c1 | 64 | 1 (≈ 1.73 µM) | 64 | 64 | 8 (≈ 13.9 µM) | 4 | 1 (≈ 1.73 µM) | 4 | 1 (≈ 1.73 µM) | 1 (≈ 1.73 µM) | 4 (≈ 6.93 µM) | 4 (≈ 6.93 µM) | 64 | > 64 |  |  | 
6 | O=C(COc1ccc(/C=C2\SC(=S)N([C@@H](Cc3c[nH]c4ccccc34)C(=O)O)C2=O)cc1)c1ccc(Cl)cc1 | 64 | 1 (≈ 1.73 µM) | 64 | 64 | 1 (≈ 1.73 µM) | 4 | 1 (≈ 1.73 µM) | 4 | 1 (≈ 1.73 µM) | 1 (≈ 1.73 µM) | 1 (≈ 1.73 µM) | 1 (≈ 1.73 µM) | 64 | > 64 | 2 | 2 | 2
7 | O=C(COc1ccc(/C=C2\SC(=S)N([C@@H](Cc3c[nH]c4ccccc34)C(=O)O)C2=O)cc1)c1ccc(Cl)cc1Cl |  | 4 (≈ 6.54 µM) |  |  | 8 (≈ 13.1 µM) |  | 8 (≈ 13.1 µM) |  | 4 (≈ 6.54 µM) | 8 (≈ 13.1 µM) | 4 (≈ 6.54 µM) | 8 (≈ 13.1 µM) |  | > 64 |  |  | 
8 | O=C(COc1ccc(/C=C2\SC(=S)N([C@@H](Cc3c[nH]c4ccccc34)C(=O)O)C2=O)cc1)c1ccccc1Br |  | 4 (≈ 6.44 µM) |  |  | 8 (≈ 12.9 µM) |  | 8 (≈ 12.9 µM) |  | 4 (≈ 6.44 µM) | 8 (≈ 12.9 µM) | 4 (≈ 6.44 µM) | 4 (≈ 6.44 µM) |  | > 64 |  |  | 
9 | O=C(COc1ccc(/C=C2\SC(=S)N([C@@H](Cc3c[nH]c4ccccc34)C(=O)O)C2=O)cc1)c1cccc(Br)c1 |  | 4 (≈ 6.44 µM) |  |  | 4 (≈ 6.44 µM) |  | 4 (≈ 6.44 µM) |  | 4 (≈ 6.44 µM) | 4 (≈ 6.44 µM) | 2 (≈ 3.22 µM) | 4 (≈ 6.44 µM) |  | > 64 |  |  | 
10 | O=C(COc1ccc(/C=C2\SC(=S)N([C@@H](Cc3c[nH]c4ccccc34)C(=O)O)C2=O)cc1)c1ccc(Br)cc1 |  | 8 (≈ 12.9 µM) |  |  | 8 (≈ 12.9 µM) |  | 8 (≈ 12.9 µM) |  | 8 (≈ 12.9 µM) | 8 (≈ 12.9 µM) | 4 (≈ 6.44 µM) | 4 (≈ 6.44 µM) |  | > 64 |  |  | 
11 | O=C(COc1ccc(/C=C2\SC(=S)N([C@@H](Cc3c[nH]c4ccccc34)C(=O)O)C2=O)cc1)c1ccccc1F |  | 8 (≈ 14.3 µM) |  |  | 8 (≈ 14.3 µM) |  | 8 (≈ 14.3 µM) |  | 8 (≈ 14.3 µM) | 8 (≈ 14.3 µM) | 8 (≈ 14.3 µM) | 8 (≈ 14.3 µM) |  | > 64 |  |  | 
12 | O=C(COc1ccc(/C=C2\SC(=S)N([C@@H](Cc3c[nH]c4ccccc34)C(=O)O)C2=O)cc1)c1ccc(F)cc1 |  | 4 (≈ 7.13 µM) |  |  | 4 (≈ 7.13 µM) |  | 4 (≈ 7.13 µM) |  | 4 (≈ 7.13 µM) | 4 (≈ 7.13 µM) | 4 (≈ 7.13 µM) | 4 (≈ 7.13 µM) |  | > 64 |  |  | 
13 | O=C(COc1ccc(/C=C2\SC(=S)N([C@@H](Cc3c[nH]c4ccccc34)C(=O)O)C2=O)cc1)c1ccccc1 |  | 8 (≈ 14.7 µM) |  |  | 8 (≈ 14.7 µM) |  | 8 (≈ 14.7 µM) |  | 8 (≈ 14.7 µM) | 8 (≈ 14.7 µM) | 8 (≈ 14.7 µM) | 8 (≈ 14.7 µM) |  | > 64 |  |  | 
14 | Cc1ccc(C(=O)COc2ccc(/C=C3\SC(=S)N([C@@H](Cc4c[nH]c5ccccc45)C(=O)O)C3=O)cc2)cc1 |  | 4 (≈ 7.19 µM) |  |  | 8 (≈ 14.4 µM) |  | 8 (≈ 14.4 µM) |  | 4 (≈ 7.19 µM) | 8 (≈ 14.4 µM) | 4 (≈ 7.19 µM) | 4 (≈ 7.19 µM) |  | > 64 |  |  | 
15 | COc1cccc(C(=O)COc2ccc(/C=C3\SC(=S)N([C@@H](Cc4c[nH]c5ccccc45)C(=O)O)C3=O)cc2)c1 |  | 8 (≈ 14 µM) |  |  | 8 (≈ 14 µM) |  | 8 (≈ 14 µM) |  | 8 (≈ 14 µM) | 8 (≈ 14 µM) | 8 (≈ 14 µM) | 8 (≈ 14 µM) |  | > 64 |  |  | 
16 | COc1ccccc1C(=O)COc1ccc(/C=C2\SC(=S)N([C@@H](Cc3c[nH]c4ccccc34)C(=O)O)C2=O)cc1 |  | 8 (≈ 14 µM) |  |  | 8 (≈ 14 µM) |  | 8 (≈ 14 µM) |  | 8 (≈ 14 µM) | 8 (≈ 14 µM) | 8 (≈ 14 µM) | 8 (≈ 14 µM) |  | > 64 |  |  | 
17 | O=C(O)CN1C(=O)C(=Cc2ccc(/C=C/C(=O)c3ccc(Cl)cc3Cl)cc2)SC1=S |  | 2 (≈ 4.18 µM) |  |  | 2 (≈ 4.18 µM) |  | 2 (≈ 4.18 µM) |  | 2 (≈ 4.18 µM) | 2 (≈ 4.18 µM) | 2 (≈ 4.18 µM) | 2 (≈ 4.18 µM) |  | > 64 |  |  | 
18 | CCn1cc(C(=O)O)c(=O)c2cc(F)c(N3CCNCC3)cc21 [NORFLOXACIN] |  | > 64 |  |  | 2 (≈ 6.26 µM) |  | 4 (≈ 12.5 µM) |  | 8 (≈ 25.1 µM) | > 64 | 2 (≈ 6.26 µM) | 2 (≈ 6.26 µM) |  | 16 (≈ 50.1 µM) |  |  | 
19 | Cc1onc(-c2ccccc2)c1C(=O)N[C@@H]1C(=O)N2[C@@H]1SC(C)(C)[C@@H]2C(=O)O [OXACILLIN] |  | 1 (≈ 2.49 µM) |  |  | 1 (≈ 2.49 µM) |  | > 64 |  | > 64 | 1 (≈ 2.49 µM) | 1 (≈ 2.49 µM) | 1 (≈ 2.49 µM) |  | > 64 |  |  | 
